Source: article PMC3157398 (PLoS ONE, 2011)

Legend:
[1] = target: mycobacterial ATP synthase (Mycolicibacterium smegmatis, UniProt A0R205+A0R206)
ATP synthase holoenzyme = ATP synthase holoenzyme (Bacillus sp., UniProt P00845+P09218); type: binding, Bacillus PS3
ATP synthase subunit c = target: T1, ATP synthase subunit c (Mycobacterium tuberculosis, UniProt P9WPS1); type: binding
T1 construct: made in house

[2] = system: ATP synthase with resistance mutation D32V in subunit c; type: biochemical, Mycobacterium smegmatis

T1 sequence (P9WPS1 whole entry): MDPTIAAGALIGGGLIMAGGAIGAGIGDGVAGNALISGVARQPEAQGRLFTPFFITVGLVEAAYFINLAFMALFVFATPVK

CC(C)(C)c1cc(C=C(C#N)C#N)cc(C(C)(C)C)c1O [SF6847]
residual ATP synthesis activity [1]: < 10%

COc1nc2ccc(N)cc2cc1[C@@H](c1ccccc1)[C@@](O)(CCN(C)C)c1cccc2ccccc12 [TMC207 amino-analog]
dissociation constant of mono-exponential fit (ATP synthase holoenzyme): 0.000103
dissociation constant of mono-exponential fit (ATP synthase subunit c): 0.002295

COc1nc2ccc(Br)cc2cc1[C@@H](c1ccccc1)[C@@](O)(CCN(C)C)c1cccc2ccccc12 [TMC207]
inhibition of ATP synthesis [2]: no inhibition
